The values that follow come from patent US12024707B2, “Methods and compositions for modulating lncRNAs and methods of treatment based on lncRNA expression” (Washington University, priority 2020, dated 2024).

The assay relates to HT29 RAMS11 overexpressing cells. Kind of assay: High-throughput viability assay (resazurin), 119 FDA-approved anticancer drugs, RAMS11 overexpressing cells (Clone1, Clone2). As to conditions: 72 h, vs empty vector control.
Where [1] appears, read: OE1 (RAMS11 overexpression clone 1), 0.1 uM drug.
Where [2] appears, read: OE1 (RAMS11 overexpression clone 1), 1 uM drug.
Where [3] appears, read: OE1 (RAMS11 overexpression clone 1), 10 uM drug.
Where [4] appears, read: OE2 (RAMS11 overexpression clone 2), 0.1 uM drug.
[5] abbreviates: OE2 (RAMS11 overexpression clone 2), 1 uM drug.
Where [6] appears, read: OE2 (RAMS11 overexpression clone 2), 10 uM drug.

Structures can show the parent of a compound that is named as a salt.

Experimental: The FDA-approved anticancer panel included multiple classes of drugs such as kinase inhibitors, alkylating agents, antineoplastic antibiotics, anthracycline antibiotics, and antineoplastic agents (topoisomerase inhibitors). The HT29 RAMS11 overexpressing and control cells were treated for 72 h to assess cellular viability upon drug treatment (FIG. 14a and TABLE 3). […] Due to 5-FU commonly used to treat mCRC, we further determined if RAMS11 expression altered drug sensitivity in treated cells.
Drugs were diluted in DMSO to 1 mM and the well assignments were rearranged so drugs were confined to the inner 60 wells of 96-well plates. […] The next day serial diluted drug was added to pre-seeded plates in media containing 1% DMSO vehicle, using a Robbins Hydra 96 micro dispenser. Two 96-well plates of cells were used as vehicle controls. The plates were incubated for 3 days. Percent viability was scored by incubating cells for 3 h with resazurin sodium (0.023 mg/mL, Sigma R7017). The reaction was stopped by the addition of SDS (1% final concentration). Fluorescence Ex/Em 540/590 was read in a Biotek Synergy H1 plate reader (Winooski, VT). The fluorescence values for the vehicle plates were averaged and percent viability was determined by the formula: Percent viability=(average vehicle−value)/(average vehicle−average resazurin in media blank)×100. […] Assays were repeated more than three times.

Consider `C[C@]12CC[C@H](O)CC1=CC[C@@H]1[C@@H]2CC[C@]2(C)C(c3cccnc3)=CC[C@@H]12` [Abiraterone], for which the “Viability Fold Change” value is, setting by setting: under setting [1], 0.9503; under setting [2], 0.9997; under setting [3], 1.001; under setting [4], 1.008; under setting [5], 1.043; under setting [6], 0.9879.
With `CN(C)C/C=C/C(=O)Nc1cc2c(Nc3ccc(F)c(Cl)c3)ncnc2cc1O[C@H]1CCOC1` [Afatinib], the “Viability Fold Change” value by setting is: under setting [1], 1.034; under setting [2], 1.121; under setting [3], 1.39; under setting [4], 1.147; under setting [5], 1.156; under setting [6], 1.398.
Consider `Oc1ncnc2[nH]ncc12` [Allopurinol], for which the “Viability Fold Change” value runs as follows: under setting [1], 0.8682; under setting [2], 0.9042; under setting [3], 0.776; under setting [4], 0.9002; under setting [5], 0.8635; under setting [6], 0.8648.
Take `CN(C)c1nc(N(C)C)nc(N(C)C)n1` [Altretamine]: the “Viability Fold Change” value is recorded as 0.949 under setting [1]; 0.9105 under setting [2]; 0.845 under setting [3]; 0.9299 under setting [4]; 0.9672 under setting [5]; 0.9171 under setting [6].
As to `NCCCNCCSP(=O)(O)O` [Amifostine], the “Viability Fold Change” value is, setting by setting: under setting [1], 0.9539; under setting [2], 1.024; under setting [3], 1.063; under setting [4], 0.99; under setting [5], 1.063; under setting [6], 1.167.
With `NCC(=O)CCC(=O)O` [Aminolevulinic Acid], the “Viability Fold Change” value under setting [1] is listed as 0.8803; the “Viability Fold Change” value under setting [2] is given as 0.9655; the “Viability Fold Change” value under setting [3] is on record as 1.022; the “Viability Fold Change” value under setting [4] worked out at 0.914; the “Viability Fold Change” value under setting [5] was 1.058; the “Viability Fold Change” value under setting [6] came out at 0.9613.
Take `CC(C)(C#N)c1cc(Cn2cncn2)cc(C(C)(C)C#N)c1` [Anastrozole]: the “Viability Fold Change” value under setting [1] was determined as 0.876; the “Viability Fold Change” value under setting [2] is given as 0.9957; the “Viability Fold Change” value under setting [3] is listed as 0.9385; the “Viability Fold Change” value under setting [4] worked out at 0.9749; the “Viability Fold Change” value under setting [5] came to 1.001; the “Viability Fold Change” value under setting [6] amounted to 0.9255.
With `CNC(=O)c1ccccc1Sc1ccc2c(/C=C/c3ccccn3)n[nH]c2c1` [Axitinib], the “Viability Fold Change” value reads like this: under setting [1], 0.9514; under setting [2], 0.9382; under setting [3], 0.8636; under setting [4], 0.911; under setting [5], 1.101; under setting [6], 0.8143.
Turning to `Nc1ncn([C@@H]2O[C@H](CO)[C@@H](O)[C@H]2O)c(=O)n1` [Azacitidine], the “Viability Fold Change” value turned out to be 1.05 under setting [1]; 1.098 under setting [2]; 0.9367 under setting [3]; 1.089 under setting [4]; 1.054 under setting [5]; 0.9049 under setting [6].
Consider `O=C(/C=C/c1cccc(S(=O)(=O)Nc2ccccc2)c1)NO` [Belinostat], for which the “Viability Fold Change” value runs as follows: under setting [1], 0.9138; under setting [2], 1.209; under setting [3], 1.035; under setting [4], 1.073; under setting [5], 1.192; under setting [6], 1.006.
With `Cn1c(CCCC(=O)O)nc2cc(N(CCCl)CCCl)ccc21` [Bendamustine hydrochloride], the “Viability Fold Change” value under setting [1] is reported as 0.8888; the “Viability Fold Change” value under setting [2] turned out to be 0.9725; the “Viability Fold Change” value under setting [3] stood at 0.935; the “Viability Fold Change” value under setting [4] is 1.01; the “Viability Fold Change” value under setting [5] is on record as 0.9036; the “Viability Fold Change” value under setting [6] came out at 0.899.
On to `CC(C)C[C@H](NC(=O)[C@H](Cc1ccccc1)NC(=O)c1cnccn1)B(O)O` [Bortezomib], for which the “Viability Fold Change” value by setting is: under setting [1], 0.6015; under setting [2], 1.059; under setting [3], 1.152; under setting [4], 0.5035; under setting [5], 0.8063; under setting [6], 0.9968.
`COc1cc(Nc2c(C#N)cnc3cc(OCCCN4CCN(C)CC4)c(OC)cc23)c(Cl)cc1Cl` [Bosutinib]: the “Viability Fold Change” value under setting [1] is recorded as 1.048; the “Viability Fold Change” value under setting [2] is 1.013; the “Viability Fold Change” value under setting [3] amounted to 1.477; the “Viability Fold Change” value under setting [4] worked out at 1.022; the “Viability Fold Change” value under setting [5] is given as 1.04; the “Viability Fold Change” value under setting [6] turned out to be 1.608.
As to `CS(=O)(=O)OCCCCOS(C)(=O)=O` [Busulfan], the “Viability Fold Change” value was determined as 1.001 under setting [1]; 0.9365 under setting [2]; 0.8448 under setting [3]; 0.977 under setting [4]; 0.9369 under setting [5]; 0.871 under setting [6].
With `CO[C@H]1C(=O)[C@]2(C)[C@@H](OC)C[C@H]3OC[C@@]3(OC(C)=O)[C@H]2[C@H](OC(=O)c2ccccc2)[C@]2(O)C[C@H](OC(=O)[C@H](O)[C@@H](NC(=O)OC(C)(C)C)c3ccccc3)C(C)=C1C2(C)C` [Cabazitaxel], the “Viability Fold Change” value was found to be 2.975 under setting [1]; 3.231 under setting [2]; 2.607 under setting [3]; 2.745 under setting [4]; 2.869 under setting [5]; 2.506 under setting [6].
As to `COc1cc2nccc(Oc3ccc(NC(=O)C4(C(=O)Nc5ccc(F)cc5)CC4)cc3)c2cc1OC` [Cabozantinib], the “Viability Fold Change” value runs as follows: under setting [1], 0.9713; under setting [2], 1.012; under setting [3], 0.995; under setting [4], 0.9575; under setting [5], 1.037; under setting [6], 0.8731.
Turning to `CCCCCOC(=O)Nc1nc(=O)n([C@@H]2O[C@H](C)[C@@H](O)[C@H]2O)cc1F` [Capecitabine], the “Viability Fold Change” value is, setting by setting: under setting [1], 1.291; under setting [2], 0.7939; under setting [3], 0.9609; under setting [4], 1.102; under setting [5], 0.8093; under setting [6], 1.166.
`N.N.O=C([O-])C1(C(=O)[O-])CCC1.[Pt+2]` [Carboplatin]: the “Viability Fold Change” value was 1.016 under setting [1]; 1.047 under setting [2]; 1.103 under setting [3]; 0.9697 under setting [4]; 1.074 under setting [5]; 0.9969 under setting [6].
As to `CC(C)C[C@H](NC(=O)[C@H](CCc1ccccc1)NC(=O)CN1CCOCC1)C(=O)N[C@@H](Cc1ccccc1)C(=O)N[C@@H](CC(C)C)C(=O)[C@@]1(C)CO1` [Carfilzomib], the “Viability Fold Change” value under setting [1] is listed as 3.32; the “Viability Fold Change” value under setting [2] came out at 2.1; the “Viability Fold Change” value under setting [3] is recorded as 1.625; the “Viability Fold Change” value under setting [4] was found to be 2.675; the “Viability Fold Change” value under setting [5] is reported as 1.654; the “Viability Fold Change” value under setting [6] is recorded as 1.343.
On to `O=NN(CCCl)C(=O)NCCCl` [Carmustine], for which the “Viability Fold Change” value was determined as 1.007 under setting [1]; 0.9864 under setting [2]; 0.8696 under setting [3]; 1.005 under setting [4]; 1.079 under setting [5]; 1.04 under setting [6].
As to `Cc1ccc(-c2cc(C(F)(F)F)nn2-c2ccc(S(N)(=O)=O)cc2)cc1` [Celecoxib], the “Viability Fold Change” value under setting [1] was 0.8767; the “Viability Fold Change” value under setting [2] turned out to be 0.9228; the “Viability Fold Change” value under setting [3] is 0.9797; the “Viability Fold Change” value under setting [4] came out at 0.948; the “Viability Fold Change” value under setting [5] was determined as 0.9628; the “Viability Fold Change” value under setting [6] turned out to be 0.9848.
On to `Cc1cc(Nc2ncc(Cl)c(Nc3ccccc3S(=O)(=O)C(C)C)n2)c(OC(C)C)cc1C1CCNCC1` [Ceritinib], for which the “Viability Fold Change” value runs as follows: under setting [1], 0.9923; under setting [2], 1.015; under setting [3], 0.8304; under setting [4], 1.009; under setting [5], 1.068; under setting [6], 0.8195.
As for `O=C(O)CCCc1ccc(N(CCCl)CCCl)cc1` [Chlorambucil], the “Viability Fold Change” value is 0.9531 under setting [1]; 1.164 under setting [2]; 1.064 under setting [3]; 0.9859 under setting [4]; 1.144 under setting [5]; 0.9173 under setting [6].
In the case of `N.N.[Cl][Pt][Cl]` [Cisplatin], the “Viability Fold Change” value is on record as 1.023 under setting [1]; 0.9277 under setting [2]; 0.9406 under setting [3]; 0.9583 under setting [4]; 0.9782 under setting [5]; 0.9961 under setting [6].
As to `Nc1nc(Cl)nc2c1ncn2[C@H]1C[C@H](O)[C@@H](CO)O1` [Cladribine], the “Viability Fold Change” value runs as follows: under setting [1], 0.8736; under setting [2], 1.321; under setting [3], 1.949; under setting [4], 0.9358; under setting [5], 1.327; under setting [6], 1.86.
